# According to article PMC12667553, “TWF2 Drives Tumor Progression and Sunitinib Resistance in Renal Cell Carcinoma through Hippo Signaling Suppression” (Advanced Science, 2025):
# Residue numbers refer to the chain shown, from its start.
# Experiments:
# [1] = biological target: T1, TWF2 (Twinfilin actin-binding protein; Flag-TWF2) (Homo sapiens, UniProt Q6IBS0); experiment: isothermal titration calorimetry; details: 25 °C; 20 mM HEPES pH 7.5, 300 mM NaCl, 2 mM MgCl2; 1 mM Sal E titrated into 100 µM TWF2; single-site model
# T1 construct: Flag-tagged TWF2 overexpressed in 293F cells, purified with anti-Flag magnetic beads
# T1 sequence (Q6IBS0 2-349): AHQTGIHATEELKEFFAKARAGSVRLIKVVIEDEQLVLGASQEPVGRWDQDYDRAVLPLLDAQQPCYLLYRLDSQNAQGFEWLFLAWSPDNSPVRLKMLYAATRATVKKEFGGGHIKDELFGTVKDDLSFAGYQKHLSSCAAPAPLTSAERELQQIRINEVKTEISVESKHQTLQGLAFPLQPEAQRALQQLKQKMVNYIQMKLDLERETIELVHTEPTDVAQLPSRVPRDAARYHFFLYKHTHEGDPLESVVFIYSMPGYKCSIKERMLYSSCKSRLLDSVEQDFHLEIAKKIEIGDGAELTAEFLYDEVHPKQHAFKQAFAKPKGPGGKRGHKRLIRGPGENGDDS
# Description: isothermal titration calorimetry on TWF2 (Twinfilin actin-binding protein; Flag-TWF2) | direct binding affinity between Sal E and purified TWF2, with a dissociation constant (K d)
# [2] = biological target: T2, TWF2 (Twinfilin actin-binding protein; Flag-TWF2) (Homo sapiens, UniProt Q6IBS0, M99A); experiment: isothermal titration calorimetry; details: 25 °C; 20 mM HEPES pH 7.5, 300 mM NaCl, 2 mM MgCl2; 1 mM Sal E titrated into 100 µM TWF2; single-site model
# T2 construct: Flag-tagged TWF2 overexpressed in 293F cells, purified with anti-Flag magnetic beads
# T2 sequence (Q6IBS0 2-349 M99A): T1 sequence (Q6IBS0 2-349) with M98A
structure (smiles),measurement,setting,value
O=C(/C=C/c1ccc(O)c(O)c1/C(=C\c1ccc(O)c(O)c1)C(=O)O[C@H](Cc1ccc(O)c(O)c1)C(=O)O)O[C@H](Cc1ccc(O)c(O)c1)C(=O)O [Salvianolic acid E],Kd,[1],16.7 µM
same,loss of Sal E binding,[2],showing loss of Sal E binding upon M99 mutation in TWF2
